Experimental data reported in patent publication US11214594B2, “Antimicrobial peptide having synergistic antibacterial effect with antibiotics on multidrug resistant bacteria, and use thereof” (priority 2016, dated 2022).
≈ marks a conversion by molar mass, not a printed value. Read-outs that look alike come from different tables or passages of the source. Where a SMILES comes first, the peptide text is derived from it.

Experiments:
[1] = tested on: MDRAB 12036; format: cell-based, Acinetobacter baumannii
How it was run: (§1)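 Peptides were serially diluted twofold in Mueller-Hinton medium and combined 1:1 with bacterial suspensions prepared at 2×10^6 CFU. Readout was the minimal inhibitory concentration, i.e. the lowest concentration with no growth.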

[2] = tested on: MDRAB 12035; test: MIC of antibiotic during combined treatment with antimicrobial peptide; format: cell-based, Acinetobacter baumannii
How it was run: (§2)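 Strains in MH medium at 2×10^6 CFU/ml were mixed with peptide diluted stepwise (2:1) from its MIC, then antibiotic dilutions in MH medium were added to give the antibiotic MIC. The reversed set-up, peptide titrated against fixed antibiotic, gave the peptide MIC.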

[3] = tested on: P. aeruginosa; test: microbe, parasite or virus in culture; format: cell-based, Pseudomonas aeruginosa
How it was run: as §1

[4] = tested on: S. aureus; test: microbe, parasite or virus in culture; format: cell-based, Staphylococcus aureus
How it was run: as §1

[5] = tested on: MDREC 1238; format: cell-based, Escherichia coli
How it was run: as §1

[6] = tested on: B. subtilis; test: microbe, parasite or virus in culture; format: cell-based, Bacillus subtilis
How it was run: as §1

[7] = tested on: MRSA 3126; format: cell-based, Staphylococcus aureus; settings: 3126
How it was run: as §1

[8] = tested on: MRSA 3114; format: cell-based, Staphylococcus aureus; settings: 3114
How it was run: as §1

[9] = tested on: S. epidermidis; test: microbe, parasite or virus in culture; format: cell-based, Staphylococcus epidermidis
How it was run: as §1

[10] = tested on: MDRPA 2003; format: cell-based, Pseudomonas aeruginosa
How it was run: as §1

[11] = tested on: MDRPA 2002; format: cell-based, Pseudomonas aeruginosa
How it was run: as §1

[12] = tested on: MDRST 8007; test: Minimal inhibitory concentration (MIC), single agent; format: cell-based, Salmonella typhimurium; settings: agent alone
How it was run: as §1

[13] = tested on: S. typhimurium; test: microbe, parasite or virus in culture; format: cell-based, Salmonella typhimurium
How it was run: as §1

[14] = tested on: MDREC 1229; test: MIC of antibiotic during combined treatment with antimicrobial peptide; format: cell-based, Escherichia coli
How it was run: as §2

[15] = tested on: MDREC 1229; format: cell-based, Escherichia coli
How it was run: as §2

[16] = tested on: E. coli; format: cell-based, Escherichia coli; settings: E. coli
How it was run: as §2

[17] = tested on: MDRAB 12035; test: microbe, parasite or virus in culture; format: cell-based, Acinetobacter baumannii
How it was run: as §1

[18] = tested on: A. baumannii; test: microbe, parasite or virus in culture; format: cell-based, Acinetobacter baumannii
How it was run: as §1

[19] = tested on: MDRAB 12035; test: MIC of antimicrobial peptide during combined treatment with antibiotic; format: cell-based, Acinetobacter baumannii
How it was run: as §2

[20] = tested on: A. baumannii; test: as above; format: cell-based, Acinetobacter baumannii
How it was run: as §2

[21] = peptide treatment concentration 1 μg/ml
[22] = peptide treatment concentration 2 μg/ml
[23] = peptide treatment concentration 4 μg/ml
[24] = peptide treatment concentration 6 μg/ml
[25] = peptide treatment concentration 8 μg/ml
[26] = peptide treatment concentration 16 μg/ml
[27] = peptide treatment concentration 32 μg/ml
[28] = peptide treatment concentration 64 μg/ml
[29] = with Erythromycin […] (Conc./MIC 1)
[30] = erythromycin 4 μg/ml (Conc./MIC 1/8)
[31] = erythromycin 8 μg/ml (Conc./MIC 1/4)
[32] = erythromycin 16 μg/ml (Conc./MIC 1/2)
[33] = erythromycin 32 μg/ml (Conc./MIC 1)
[34] = vancomycin 512 μg/ml (Conc./MIC 1/2)
[35] = vancomycin 1024 μg/ml (Conc./MIC 1)

For `CC[C@H](C)[C@H](NC(=O)[C@H](CCCCN)NC(=O)[C@H](Cc1c[nH]c2ccccc12)NC(=O)[C@@H](N)CCCNC(=N)N)C(=O)N[C@@H](Cc1ccccc1)C(=O)N[C@@H](CCCCN)C(=O)N[C@@H](CCCCN)C(=O)N[C@H](C(=O)N1CCC[C@H]1C(=O)N[C@@H](CCCCN)C(=O)N[C@@H](CC(C)C)C(=O)N[C@@H](CC(C)C)C(=O)N[C@@H](Cc1c[nH]cn1)C(=O)N[C@@H](CO)C(=O)N[C@@H](Cc1ccccc1)C(=O)N[C@@H](CCCCN)C(=O)N[C@@H](CCCCN)C(=O)N[C@@H](Cc1ccccc1)C(N)=O)[C@@H](C)CC` [PapMA-7, RWK IFK KIP KLL HSF KKF-NH2] (H-RWKIFKKIPKLLHSFKKF-NH2; N-terminus assumed), the “Minimal inhibitory concentration MIC” value [1] was 32 mg/L (≈ 13.7 µM), the “Erythromycin MIC during combined treatment with peptide” value [2, 21] was 8 mg/L and the “Linezolid MIC during combined treatment with peptide” value [2, 21] was 64 mg/L. For the same molecule, the “Vancomycin MIC during combined treatment with peptide” value [2, 21] was 128 mg/L, the “Erythromycin MIC during combined treatment with peptide” value [2, 22] was 4 mg/L and the “Linezolid MIC during combined treatment with peptide” value [2, 22] was 32 mg/L. The “Vancomycin MIC during combined treatment with peptide” value [2, 22] was 32 mg/L, the “Erythromycin MIC during combined treatment with peptide” value [2, 23] was 2 mg/L and the “Linezolid MIC during combined treatment with peptide” value [2, 23] was 8 mg/L. For the same molecule, the “Vancomycin MIC during combined treatment with peptide” value [2, 23] was 8 mg/L, the “Erythromycin MIC during combined treatment with peptide” value [2, 24] was 0.5 mg/L and the “Linezolid MIC during combined treatment with peptide” value [2, 24] was 4 mg/L. For the same molecule, the “Vancomycin MIC during combined treatment with peptide” value [2, 24] was 4 mg/L, the “Erythromycin MIC during combined treatment with peptide” value [2, 25] was 0.125 mg/L and the “Linezolid MIC during combined treatment with peptide” value [2, 25] was 2 mg/L. For the same molecule, the “Vancomycin MIC during combined treatment with peptide” value [2, 25] was 2 mg/L, the “Erythromycin MIC during combined treatment with peptide” value [2, 26] was 0.0625 mg/L and the “Linezolid MIC during combined treatment with peptide” value [2, 26] was 1 mg/L. The “Vancomycin MIC during combined treatment with peptide” value [2, 26] was 1 mg/L, the “Erythromycin MIC during combined treatment with peptide” value [2, 27] was 0 mg/L and the “Linezolid MIC during combined treatment with peptide” value [2, 27] was 0 mg/L. For the same molecule, the “Vancomycin MIC during combined treatment with peptide” value [2, 27] was 0 mg/L, the “Erythromycin MIC during combined treatment with peptide” value [2, 28] was 0 mg/L and the “Linezolid MIC during combined treatment with peptide” value [2, 28] was 0 mg/L. The “Vancomycin MIC during combined treatment with peptide” value [2, 28] was 0 mg/L, the “Minimal inhibitory concentration MIC” value [3] was 16 mg/L (≈ 6.83 µM) and the “Antibacterial activity (in words)” value ([3]; P. aeruginosa and S. typhimurium) was “significantly increased”. For the same molecule, the “Minimal inhibitory concentration MIC” value [4] was >128 mg/L, the “Minimal inhibitory concentration MIC” value [5] was 64 mg/L (≈ 27.3 µM) and the “Minimal inhibitory concentration MIC” value [6] was >128 mg/L. The “Minimal inhibitory concentration MIC” value [7] was >128 mg/L, the “Minimal inhibitory concentration MIC” value [8] was >128 mg/L and the “Minimal inhibitory concentration MIC” value [9] was >128 mg/L. The “Minimal inhibitory concentration MIC” value [10] was 16 mg/L (≈ 6.83 µM), the “Minimal inhibitory concentration MIC” value [11] was 16 mg/L (≈ 6.83 µM) and the “Minimal inhibitory concentration MIC” value [12] was 32 mg/L (≈ 13.7 µM). The “Minimal inhibitory concentration MIC” value [13] was 16 mg/L (≈ 6.83 µM), the “Antibiotic MIC, Erythromycin” value [14, 21] was 64 mg/L and the “Antibiotic MIC, Linezolid” value [14, 21] was 128 mg/L. The “Antibiotic MIC, Vancomycin” value [14, 21] was >128 mg/L, the “Antibiotic MIC, Erythromycin” value [14, 22] was 16 mg/L and the “Antibiotic MIC, Linezolid” value [14, 22] was 32 mg/L. The “Antibiotic MIC, Vancomycin” value [14, 22] was >128 mg/L, the “Antibiotic MIC, Erythromycin” value [14, 23] was 4 mg/L and the “Antibiotic MIC, Linezolid” value [14, 23] was 16 mg/L. The “Antibiotic MIC, Vancomycin” value [14, 23] was 128 mg/L, the “Antibiotic MIC, Erythromycin” value [14, 24] was 2 mg/L and the “Antibiotic MIC, Linezolid” value [14, 24] was 8 mg/L. For the same molecule, the “Antibiotic MIC, Vancomycin” value [14, 24] was 16 mg/L, the “Antibiotic MIC, Erythromycin” value [14, 25] was 1 mg/L and the “Antibiotic MIC, Linezolid” value [14, 25] was 4 mg/L. The “Antibiotic MIC, Vancomycin” value [14, 25] was 8 mg/L, the “Antibiotic MIC, Erythromycin” value [14, 26] was 0.125 mg/L and the “Antibiotic MIC, Linezolid” value [14, 26] was 2 mg/L. The “Antibiotic MIC, Vancomycin” value [14, 26] was 2 mg/L, the “Antibiotic MIC, Erythromycin” value [14, 27] was 0.0625 mg/L and the “Antibiotic MIC, Linezolid” value [14, 27] was 1 mg/L. The “Antibiotic MIC, Vancomycin” value [14, 27] was 1 mg/L, the “Antibiotic MIC, Erythromycin” value [14, 28] was 0 mg/L and the “Antibiotic MIC, Linezolid” value [14, 28] was 0 mg/L. For the same molecule, the “Antibiotic MIC, Vancomycin” value [14, 28] was 0 mg/L, the “Peptide MIC” value [15, 29] was 0 mg/L and the “Peptide MIC” value ([15]; with Linezolid 512 μg/ml (Conc./MIC 1)) was 0 mg/L. For the same molecule, the “Peptide MIC” value [16, 29] was 0 mg/L, the “Peptide MIC” value ([16]; with Linezolid […] (Conc./MIC 1)) was 0 mg/L and the “Peptide MIC” value ([16]; with Vancomycin 1024 μg/ml (Conc./MIC 1)) was 0 mg/L. For the same molecule, the “Minimal inhibitory concentration MIC” value [17] was 32 mg/L (≈ 13.7 µM), the “Peptide MIC, peptide alone” value [17] was 32 mg/L and the “Minimal inhibitory concentration MIC” value [18] was 16 mg/L (≈ 6.83 µM). The “Peptide MIC, peptide alone” value [18] was 16 mg/L, the “Peptide MIC during treatment with erythromycin” value [19, 30] was 2 mg/L and the “Peptide MIC during treatment with erythromycin” value [19, 31] was 1 mg/L. The “Peptide MIC during treatment with erythromycin” value [19, 32] was 1 mg/L, the “Peptide MIC during treatment with erythromycin” value [19, 33] was 0 mg/L and the “Peptide MIC during treatment with linezolid” value ([19]; linezolid 64 μg/ml (Conc./MIC 1/8)) was 1 mg/L. The “Peptide MIC during treatment with linezolid” value ([19]; linezolid 512 μg/ml (Conc./MIC 1)) was 0 mg/L, the “Peptide MIC during treatment with linezolid” value ([19]; linezolid […] (Conc./MIC 1/2)) was 1 mg/L and the “Peptide MIC during treatment with linezolid” value ([19]; linezolid […] (Conc./MIC 1/4)) was 1 mg/L. For the same molecule, the “Peptide MIC during treatment with vancomycin” value [19, 34] was 0.5 mg/L, the “Peptide MIC during treatment with vancomycin” value [19, 35] was 0.25 mg/L and the “Peptide MIC during treatment with vancomycin” value ([19]; vancomycin […] (Conc./MIC 1/4)) was 1 mg/L. For the same molecule, the “Peptide MIC during treatment with vancomycin” value ([19]; vancomycin […] (Conc./MIC 1/8)) was 1 mg/L, the “Peptide MIC during treatment with antibiotic” value [20, 30] was 2 mg/L and the “Peptide MIC during treatment with antibiotic” value [20, 31] was 2 mg/L. For the same molecule, the “Peptide MIC during treatment with antibiotic” value [20, 32] was 1 mg/L, the “Peptide MIC during treatment with antibiotic” value [20, 33] was 0 mg/L and the “Peptide MIC during treatment with antibiotic” value ([20]; linezolid 32 μg/ml (Conc./MIC 1/8)) was 2 mg/L. The “Peptide MIC during treatment with antibiotic” value ([20]; linezolid 64 μg/ml (Conc./MIC 1/4)) was 2 mg/L, the “Peptide MIC during treatment with antibiotic” value ([20]; linezolid […] (Conc./MIC 1)) was 0 mg/L and the “Peptide MIC during treatment with antibiotic” value ([20]; linezolid […] (Conc./MIC 1/2)) was 1 mg/L. For the same molecule, the “Peptide MIC during treatment with antibiotic” value [20, 34] was 0.25 mg/L, the “Peptide MIC during treatment with antibiotic” value [20, 35] was 0 mg/L and the “Peptide MIC during treatment with antibiotic” value ([20]; vancomycin […] (Conc./MIC 1/4)) was 0.25 mg/L. The “Peptide MIC during treatment with antibiotic” value ([20]; vancomycin […] (Conc./MIC 1/8)) was 2 mg/L.
